The source of these data is patent US11975009B2, “Use of zinc porphyrin as an antimicrobial” (ZNABLE LLC, priority 2022, dated 2024).

Test [1] deals with pqsA mutant biofilms. To be noted: mutant with little to no eDNA; cited from earlier work.
In test [2] the test system is PsA biofilms and planktonic cells. To be noted: cited from earlier work.
In test [3] the test system is PsA. Nature of the test: Activity of extant antibiotics together with ZnPor (II). To be noted: pre-treated by ZnPor (II).

Molecules are shown by their SMILES.

As to `C[n+]1ccc(-c2c3nc(c(-c4cc[n+](C)cc4)c4ccc([nH]4)c(-c4cc[n+](C)cc4)c4nc(c(-c5cc[n+](C)cc5)c5ccc2[nH]5)C=C4)C=C3)cc1.Cc1ccc(S(=O)(=O)[O-])cc1.Cc1ccc(S(=O)(=O)[O-])cc1.Cc1ccc(S(=O)(=O)[O-])cc1.Cc1ccc(S(=O)(=O)[O-])cc1` [TMP, 5,10,15,20-tetrakis(1-methylpyridino)-21H,23H-porphine, tetra-p-tosylate salt], the “effect on pqsA mutant biofilms” value in test [1] is on record as “no effect”. Also, in test [2] (absence of photoactivation), the “toxicity to bacterial cells” value is “little to no toxicity”. Further, the “effect on antibiotic sensitivity of biofilm-associated cells” value in test [2] (light activation not required) was “sensitive to tobramycin, gentamycin, and vancomycin”. For the same compound, the “efficacy against PsA biofilms and planktonic cells” value in test [2] (when photoactivated) is on record as “highly effective”. Moreover, in test [2] (without light activation), the “effect on PsA biofilms” value is “disruption and detachment from the substrata”.
As to `CN[C@H](CC(C)C)C(=O)N[C@H]1C(=O)N[C@@H](CC(N)=O)C(=O)N[C@H]2C(=O)N[C@H]3C(=O)N[C@H](C(=O)N[C@H](C(=O)O)c4cc(O)cc(O)c4-c4cc3ccc4O)[C@H](O)c3ccc(c(Cl)c3)Oc3cc2cc(c3O[C@@H]2O[C@H](CO)[C@@H](O)[C@H](O)[C@H]2O[C@H]2C[C@](C)(N)[C@H](O)[C@H](C)O2)Oc2ccc(cc2Cl)[C@H]1O` [Vancomycin, reference compound], the “killing of PsA” value in test [3] is listed as “kills”.
